From PubChem BioAssay AID2060362 (Molecular Pharmacology Branch, DTP, NCI, 2025)
Active and inactive are the calls of the source. Rule for the calls: active = viability on the fitted dose curve at most 10% of control; inactive = the rest.

Test system: 128128-338-R-J1-PDC spheroids, viability % test/control
Assay: Anticancer human tumor 128128-338-R-J1-PDC patient-derived melanoma cell line growth inhibition [TAK]
Details: spheroids with HUVEC and MSC; for IC50: curve of first compound; for viability, T/C: stronger effect = lower value
Excerpt: Combinatorial screen of targeted agents with TAK-243 and ipatasertib in multi-cell type tumor spheroids
A high-throughput screen of multi-cell type tumor spheroids was designed to identify active combinations of targeted small molecules and TAK-243 or ipatasertib. Complex spheroids include a stromal component modeled by human endothelial cells (HUVEC) and fibroblasts modeled by human mesenchymal stem cells (MSCs). The concentration ranges selected for each drug and investigational agent were based upon clinically achievable concentrations if the clinical Cmax of the agent was known.
Compounds. The drugs and investigational agents: TAK-243 (785004), ipatasertib (767898), everolimus (733504), selumetinib (741078), bortezomib (756655), trametinib (758246), ixazomib (758254), vemurafenib (761431), dabrafenib (764134), sapanisertib (764658), alpelisib (765974), and copanlisib (816437), were obtained from the National Cancer Institute (NCI) Developmental Therapeutics Program Chemical Repository. The FDA-approved anticancer drug set is available from the NCI Developmental Therapeutics Program. […] The stock solutions were prepared in dimethyl sulfoxide (DMSO, Sigma-Aldrich, St. Louis, MO, cat. D2650) at 800-fold the tested concentration and stored at -70 degrees C prior to their use. All drugs and investigational agents were tested over a range starting from a high concentration at or near the clinical Cmax and decreasing in half-log increments. If the clinical Cmax for an agent had not been determined, the highest concentration tested was 10 microM.
NCI60 Cell Culture. NCI60 cell lines were obtained from the NCI Developmental Therapeutics Program Tumor Repository. For each lot of cells, the Repository performed Applied Biosystems AmpFLSTR Identifiler testing with PCR amplification to confirm consistency with the published Identifier STR profile for each cell line. Cells were kept in continuous culture for no more than 20 passages. The optimal seeding densities for each of the cell lines at each time point assessed were determined prior to performing the concentration response studies. Briefly, the NCI60 human tumor lines were grown as monolayers in RPMI 1640 medium supplemented with 10% FBS and 2 mmol/L L-glutamine.
An additional 2 lines were from the NCI60 cell line panel including melanomas, MALME-3M and SK-MEL-2. Pooled donor human umbilical vein endothelial cells (HUVEC, Lonza, cat. CC-2519) and human mesenchymal stem cells (hMSC, Lonza, cat. PT-2501) were purchased from Lonza (Walkersville, MD).
PDMR cell lines were grown in complete medium (DC medium): Dulbecco's modified Eagle's medium (DMEM)/F12 supplemented with 5% fetal bovine serum (FBS), 2 mM L-glutamine, 100 U/mL penicillin and 100 µg/ml streptomycin, 0.4 µg/ml hydrocortisone, 10 ng/ml epidermal growth factor (EGF) recombinant human protein, 24 µg/mL adenine, and 0.1 mg/mL primocin. During culture from frozen stock vials, PDMR cells were cultured in the same medium containing 10 µM Y-27632 (see Table 3). The PDCs were cultured in complete DMEM/F12 media without 10 microM Y-27632 dihydrochloride for at least two passages prior to the screen. The pooled donor HUVEC and hMSC were cultured in endothelial cell growth medium 2 (PromoCell, Heidelberg, Germany, cat. C-22011) and mesenchymal stem cell growth medium 2 (PromoCell, cat. C-28009), respectively. For all experiments, HUVEC and hMSC were used at passages </=5.
For the pre-screen, cell seeding densities were determined from a titration spanning the range from 5,000 to 313 cells per well. The mct-spheroids including 60% malignant cells, 25% HUVEC and 15% MSC dispensed as a mixture into U-bottom Ultra-Low Attachment 384-well plates (Corning, NY)
High-throughput Drug Combination Screening.
Prior to their inoculation into 384-well plates, malignant cells, HUVEC, and hMSC were removed from T flasks using TrypLE express (Thermo Fisher Scientific, cat. 12605036) and harvested by centrifugation for 5 min at 233 x g. […]
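Note: spheroids exposed to compounds for 7 days.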
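Throughout, for viability, T/C: 100% = DMSO vehicle wells.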

COC1CC2CCC(C)C(O)(O2)C(=O)C(=O)N2CCCCC2C(=O)OC(C(C)CC2CCC(OCCO)C(OC)C2)CC(=O)C(C)C=C(C)C(O)C(OC)C(=O)C(C)CC(C)C=CC=CC=C1C (stereo not given) + CC(C)NCC(C(=O)N1CCN(c2ncnc3c2C(C)CC3O)CC1)c1ccc(Cl)cc1
18.5 nM: IC50 (second compound 0.949 µM)
active: viability, T/C (second compound 9.49 µM, first compound 0.0316 µM) 9.65% | viability, T/C (second compound 9.49 µM, first compound 0.1 µM) 9.71% | viability, T/C (second compound 30 µM, first compound 0.000316 µM) 9.06% | viability, T/C (second compound 30 µM, first compound 0.001 µM) 7.48% | viability, T/C (second compound 30 µM, first compound 0.00316 µM) 3.65% | viability, T/C (second compound 30 µM, first compound 0.01 µM) 2.31% | viability, T/C (second compound 30 µM, first compound 0.0316 µM) 2.3% | viability, T/C (second compound 30 µM, first compound 0.1 µM) 2.06%
inactive: viability, T/C (second compound 0.3 µM, first compound 0.000316 µM) 110% | viability, T/C (second compound 0.3 µM, first compound 0.001 µM) 99.9% | viability, T/C (second compound 0.3 µM, first compound 0.00316 µM) 87.6% | viability, T/C (second compound 0.3 µM, first compound 0.01 µM) 69.1% | viability, T/C (second compound 0.3 µM, first compound 0.0316 µM) 56.6% | viability, T/C (second compound 0.3 µM, first compound 0.1 µM) 54.4% | viability, T/C (second compound 0.949 µM, first compound 0.000316 µM) 110% | viability, T/C (second compound 0.949 µM, first compound 0.001 µM) 97.4% | viability, T/C (second compound 0.949 µM, first compound 0.00316 µM) 68.8% | viability, T/C (second compound 0.949 µM, first compound 0.01 µM) 56.4% | viability, T/C (second compound 0.949 µM, first compound 0.0316 µM) 48.8% | viability, T/C (second compound 0.949 µM, first compound 0.1 µM) 35.6% | viability, T/C (second compound 3 µM, first compound 0.000316 µM) 88% | viability, T/C (second compound 3 µM, first compound 0.001 µM) 77.4% | viability, T/C (second compound 3 µM, first compound 0.00316 µM) 62.5% | outcome (second compound 3 µM, first compound 0.01 µM) | outcome (second compound 3 µM, first compound 0.0316 µM) | outcome (second compound 3 µM, first compound 0.1 µM) | viability, T/C (second compound 9.49 µM, first compound 0.000316 µM) 56.3% | viability, T/C (second compound 9.49 µM, first compound 0.001 µM) 37.2% | viability, T/C (second compound 9.49 µM, first compound 0.00316 µM) 20.4% | viability, T/C (second compound 9.49 µM, first compound 0.01 µM) 11.9%
7.41 nM: IC50 (second compound 3 µM)
> 100 nM: IC50 (second compound 0.3 µM)
< 0.316 nM: IC50 (second compound 30 µM)
0.462 nM: IC50 (second compound 9.49 µM)
